Data on 12 molecules can be found in paper PMC12035807 (2025).

As a reminder, the KD is the constant that tells how readily two partners part at equilibrium. The low end stands for higher affinity, the high end for lower affinity.

Test [1] deals with Tte preQ1 riboswitch (not labelled) (RNA, riboswitch) CUGGGUCGCAGUAACCCCAGUUAACAAAACAAG
Description: ITC. Conditions: 100 mM NaCl, 6 mM MgCl2, 50 mM HEPES pH 7.0, 25 °C; for binding: loose binding in SPR; for KD: 0.2% DMSO.

The test system of test [2] is 5'-Cy5-Ba SAM-VI riboswitch (RNA, riboswitch) GGCAUUGUGCCUCGCAUUGCACUCCGCGGGGCGAUAAGUCCUGAAAAGGGAUGUC
Description: MST. Conditions: 100 mM KCl, 25 mM MgCl2, 50 mM Tris-HCl pH 7.5, 2% DMSO.

Test [3] has as its system 5'-Biotin-Ba SAM-VI riboswitch (RNA, riboswitch) GGCAUUGUGCCUCGCAUUGCACUCCGCGGGGCGAUAAGUCCUGAAAAGGGAUGUC
Description: SPR, 1:1 kinetic fit. Conditions: 150 mM NaCl, 6 mM MgCl2; 50 mM HEPES pH 7.0, 25 °C.

For test [4], the system named is Ba SAM-VI riboswitch (label-free, IVT) (RNA, riboswitch) GGCAUUGUGCCUCGCAUUGCACUCCGCGGGGCGAUAAGUCCUGAAAAGGGAUGUC
Description: ITC. Conditions: 50 mM KCl, 10 mM MgCl2; 40 mM HEPES pH 7.0, 25 °C, 0.2% DMSO.

In test [5] the test system is 5'-Cy5-Tte preQ1 riboswitch (RNA, riboswitch) CUGGGUCGCAGUAACCCCAGUUAACAAAACAAG
Description: MST. Conditions: 100 mM KCl, 25 mM MgCl2, 50 mM Tris-HCl pH 7.5, 2% DMSO.

Test [6] deals with 5'-Biotin-Tte preQ1 riboswitch (RNA, riboswitch) CUGGGUCGCAGUAACCCCAGUUAACAAAACAAG
Description: SPR. Conditions: 150 mM NaCl, 6 mM MgCl2; 50 mM HEPES pH 7.0, 25 °C; loose unspecific, no saturation to 50 µM, KD not determinable.

Test [7] shares this test system. Description: SPR, Interaction Map analysis. Conditions: 150 mM NaCl, 6 mM MgCl2; 50 mM HEPES pH 7.0, 25 °C, 2% DMSO. A general note: SPR reads the build-up and loss of mass on a sensor chip optically.
Test [8] has the same test system. Description: SPR, 1:1 kinetic fit. Conditions: 150 mM NaCl, 6 mM MgCl2, 50 mM HEPES pH 7.0, 25 °C.

Turning to `NCCCNCCOc1ccc2oc3ccccc3c2c1`, the binding entry in test [1] (RNA 30 µM, ligand 300 µM) was “no”; in test [2] (up to 1 mM), “no”.

As to `C[S+](CC[C@H](N)C(=O)O)C[C@H]1O[C@@H](n2cnc3c(N)ncnc32)[C@H](O)[C@@H]1O` (some centres unmarked), the figures for the KD in test [3], in test [4] and in test [2] (20 nM RNA) were 3.72 ± 0.41 µM, 0.000671 ± 5.9e-05 mM and 0.718 ± 0.399 × 10^-6 M, respectively. For the same molecule, in test [5] (up to 1 mM), the binding result is listed as “no”.

`NCCOc1ccc2[nH]c3ccccc3c2c1`: the binding entry is reported as “no” in test [1] (RNA 15 µM, ligand 150 µM) and “no” in test [2] (up to 1 mM).

Consider `NCCOc1ccc2oc3ccccc3c2c1`, for which the binding entry in test [1] (RNA 30 µM, ligand 300 µM) is given as “no”; in test [2] (up to 1 mM), “no”.

With `NCCCNC[C@H]1O[C@@H](n2cnc3c(N)ncnc32)[C@H](O)[C@@H]1O`, the KD is 4.17 ± 1.56 µM in test [3] and 0.00173 ± 0.00051 mM in test [4]. Further, the binding entry in test [6] was “weak”; in test [2] (20 nM RNA), “yes”; in test [5] (up to 1 mM), “no”.

`NCCCCNCCCNCCOc1ccc2oc3ccccc3c2c1`: the binding entry is “no” in test [1] (RNA 15 µM, ligand 150 µM) and “no” in test [2] (up to 1 mM).

For `Nc1ncnc2c1ncn2[C@@H]1O[C@H](CSCC[C@H](N)C(=O)O)[C@@H](O)[C@H]1O`, the KD in test [3] was 150 ± 39 µM; in test [4], 0.014 ± 0.0042 mM; in test [2] (20 nM RNA), 34.4 ± 12.0 × 10^-6 M. The binding result in test [5] (up to 1 mM) is listed as “no”.

Turning to `NCCCCNCCCNCCOc1ccc2[nH]c3ccccc3c2c1`, the binding entry in test [1] (RNA 15 µM, ligand 150 µM) was “no”; in test [2] (up to 1 mM), “no”.

With `NCCCNCCOc1ccc2[nH]c3ccccc3c2c1`, the binding result in test [1] (RNA 30 µM, ligand 300 µM) is recorded as “no”; in test [2] (up to 1 mM), “no”.

In the case of `N#Cc1c[nH]c2nc(N)[nH]c(=O)c12`, the KD in test [7] was 0.134 µM; in test [1], 0.0854 ± 0.0033 µM; in test [8] (2% DMSO), 0.074 ± 0.0294 µM. For the same molecule, the binding entry in test [2] (up to 1 mM) is given as “no”; in test [5] (20 nM RNA) it was “yes”.

Take `Nc1ncnc2c1ncn2[C@@H]1O[C@H](CNCC[C@H](N)C(=O)O)[C@@H](O)[C@H]1O`: the dissociation constant (KD) amounted to 12.3 ± 1.3 µM in test [3], 0.00331 ± 0.00021 mM in test [4] and 33.3 µM in test [2] (20 nM RNA). Moreover, the binding result in test [5] (up to 1 mM) is listed as “no”.

With `NCc1c[nH]c2nc(N)[nH]c(=O)c12`, the equilibrium dissociation constant (KD) was 0.0231 ± 0.0074 µM in test [1] and 0.0191 µM in test [8] (one representative sensorgram, replicates 18.5-47.4, mean not in material). Also, the values for the binding result in test [2] (up to 1 mM) and in test [5] (20 nM RNA) were “no” and “yes”, respectively.
